# Source: patent US20170107179A1 (Tetraphase Pharmaceuticals, Inc., priority 2010, published 2017)
# System: Gram-negative and Gram-positive organisms (clinical isolates)
# Experiment: Broth microdilution MIC against clinical isolates (CLSI M7-A8), Table 9
# Assay type: cell-based
structure (smiles),measurement,value
"CN(C)c1cc(NC(=O)CNC(C)(C)C)c(O)c2c1C[C@H]1C[C@H]3[C@H](N(C)C)C(O)=C(C(N)=O)C(=O)[C@@]3(O)C(O)=C1C2=O [Tigecycline, tigecycline]",MICs against tetracycline resistant isolates relative to tetracycline susceptible isolates,not notably altered
